Experimental data reported in ChEMBL document CHEMBL1142054, “QSAR-by-NMR: quantitative insights into structural determinants for binding affinity by analysis of 1H/15N chemical shift differences in MMP-3 ligands” (Bioorg Med Chem Lett, 2005).

Tests used:
Stromelysin-1 [1] = molecular target: T1, Stromelysin-1 (Homo sapiens, UniProt P08254); experiment: (§1) Binding affinity for human Matrix metalloprotease-3
Target sequence in this assay (P08254 100-477 limits assumed): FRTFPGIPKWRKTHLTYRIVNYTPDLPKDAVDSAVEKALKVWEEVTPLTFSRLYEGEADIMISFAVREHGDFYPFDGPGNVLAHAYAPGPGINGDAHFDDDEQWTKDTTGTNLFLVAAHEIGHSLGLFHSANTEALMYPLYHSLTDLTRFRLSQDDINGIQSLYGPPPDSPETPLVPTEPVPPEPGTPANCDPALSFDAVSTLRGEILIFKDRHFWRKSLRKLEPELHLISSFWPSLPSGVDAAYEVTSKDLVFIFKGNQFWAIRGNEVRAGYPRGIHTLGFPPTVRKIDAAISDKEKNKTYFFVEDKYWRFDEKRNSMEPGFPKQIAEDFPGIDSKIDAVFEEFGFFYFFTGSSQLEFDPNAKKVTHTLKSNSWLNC

Stromelysin-1 [2] = molecular target: T1, Stromelysin-1; experiment: as §1; remark: listed apart in the source
Target sequence in this assay (P08254 whole entry): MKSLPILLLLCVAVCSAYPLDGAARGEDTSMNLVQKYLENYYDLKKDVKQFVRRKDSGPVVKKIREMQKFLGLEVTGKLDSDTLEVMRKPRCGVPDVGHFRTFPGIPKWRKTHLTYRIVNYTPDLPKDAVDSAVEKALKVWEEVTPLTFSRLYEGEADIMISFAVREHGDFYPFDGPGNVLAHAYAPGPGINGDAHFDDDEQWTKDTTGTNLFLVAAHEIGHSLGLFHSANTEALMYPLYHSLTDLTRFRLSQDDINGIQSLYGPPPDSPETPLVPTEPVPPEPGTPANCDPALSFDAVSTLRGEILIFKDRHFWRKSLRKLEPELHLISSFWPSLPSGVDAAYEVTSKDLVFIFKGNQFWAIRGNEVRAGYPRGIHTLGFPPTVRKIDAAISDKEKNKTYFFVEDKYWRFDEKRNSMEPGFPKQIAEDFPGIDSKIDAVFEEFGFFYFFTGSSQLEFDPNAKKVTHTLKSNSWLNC

Neutrophil collagenase = Neutrophil collagenase (Homo sapiens, UniProt P22894); experiment: Binding affinity for human Matrix metalloprotease-8
Chain of Neutrophil collagenase (P22894 whole entry): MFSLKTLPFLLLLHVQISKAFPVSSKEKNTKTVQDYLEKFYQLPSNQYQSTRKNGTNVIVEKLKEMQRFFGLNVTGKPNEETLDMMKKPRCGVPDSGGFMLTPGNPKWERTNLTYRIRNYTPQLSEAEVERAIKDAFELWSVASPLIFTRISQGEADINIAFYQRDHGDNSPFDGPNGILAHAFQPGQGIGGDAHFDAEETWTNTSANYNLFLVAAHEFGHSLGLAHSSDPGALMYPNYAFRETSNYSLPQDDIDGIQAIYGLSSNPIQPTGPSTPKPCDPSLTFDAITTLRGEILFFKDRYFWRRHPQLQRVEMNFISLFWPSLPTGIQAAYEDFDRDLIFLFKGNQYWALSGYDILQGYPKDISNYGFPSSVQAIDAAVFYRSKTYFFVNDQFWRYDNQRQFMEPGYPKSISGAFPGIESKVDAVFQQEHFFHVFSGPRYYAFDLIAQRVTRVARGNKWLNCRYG

Row | Structure (SMILES) | Concentration (Stromelysin-1 [1]) [nM] | IC50 (Stromelysin-1 [2]) [nM] | IC50 (Neutrophil collagenase) [nM]
1 | O=C(O)[C@H]1Cc2ccccc2CC1S(=O)(=O)c1ccc(F)cc1 (some centres not stated) | 400 | – | –
2 | O=C(O)[C@H]1Cc2ccccc2CC1S(=O)(=O)c1ccc(Cl)cc1 (some centres not stated) | 100 | – | –
3 | O=C(O)[C@H]1Cc2ccccc2CC1S(=O)(=O)c1ccc(CCc2ccccc2)cc1 (some centres not stated) | 50 | – | –
4 | N#Cc1ccc(-c2ccc(S(=O)(=O)C3Cc4ccccc4C[C@@H]3C(=O)O)cc2)cc1 (some centres not stated) | 1000 | – | –

Second part, the compound after the results:

Row | Concentration (Stromelysin-1 [1]) [nM] | IC50 (Stromelysin-1 [2]) [nM] | IC50 (Neutrophil collagenase) [nM] | Structure (SMILES)
5 | – | 500 | 10 | O=C(O)[C@H]1Cc2ccccc2CC1S(=O)(=O)c1ccc(-c2ccccc2)cc1 (some centres not stated)
6 | 200 | – | – | O=C(O)[C@H]1Cc2ccccc2CC1S(=O)(=O)c1ccc(Oc2ccccc2)cc1 (some centres not stated)
